Data: patent publication US11584714B2 (priority 2018, dated 2023)
Where a name gives a salt, the structure may show the parent alone. Read-outs that look alike come from different tables or passages of the source.

What was measured:
Format in all cases: biochemical
[1] = target: mMASP-2 (Mus musculus (Mouse), UniProt Q91WP0); test: Enzymatic inhibition of mMASP-2
[2] = target: MASP-2 (CCP1-CCP2-SP) (Homo sapiens (Human), UniProt O00187); test: biochemical; conditions: for MASP-2 vs. thrombin selectivity: selectivity for MASP-2 inhibition versus thrombin
Sequence of MASP-2 (CCP1-CCP2-SP) (O00187 445-686): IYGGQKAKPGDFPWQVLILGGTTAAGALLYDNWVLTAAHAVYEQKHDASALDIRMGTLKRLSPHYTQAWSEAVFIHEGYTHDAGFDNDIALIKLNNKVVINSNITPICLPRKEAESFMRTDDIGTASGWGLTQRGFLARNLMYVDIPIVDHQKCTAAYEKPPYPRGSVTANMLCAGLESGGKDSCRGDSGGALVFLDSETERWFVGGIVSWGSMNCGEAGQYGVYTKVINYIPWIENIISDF

[3] = test system: Lectin Pathway; test: Lectin pathway activation assay in human serum (mannan-coated ELISA, C3c detection); conditions: 1% human serum
[4] = target: human α-thrombin (Homo sapiens (Human), UniProt P00734); test: Enzymatic assay for thrombin (Boc-VPR-AMC substrate)

Sequence of mMASP-2 (Q91WP0 20-685): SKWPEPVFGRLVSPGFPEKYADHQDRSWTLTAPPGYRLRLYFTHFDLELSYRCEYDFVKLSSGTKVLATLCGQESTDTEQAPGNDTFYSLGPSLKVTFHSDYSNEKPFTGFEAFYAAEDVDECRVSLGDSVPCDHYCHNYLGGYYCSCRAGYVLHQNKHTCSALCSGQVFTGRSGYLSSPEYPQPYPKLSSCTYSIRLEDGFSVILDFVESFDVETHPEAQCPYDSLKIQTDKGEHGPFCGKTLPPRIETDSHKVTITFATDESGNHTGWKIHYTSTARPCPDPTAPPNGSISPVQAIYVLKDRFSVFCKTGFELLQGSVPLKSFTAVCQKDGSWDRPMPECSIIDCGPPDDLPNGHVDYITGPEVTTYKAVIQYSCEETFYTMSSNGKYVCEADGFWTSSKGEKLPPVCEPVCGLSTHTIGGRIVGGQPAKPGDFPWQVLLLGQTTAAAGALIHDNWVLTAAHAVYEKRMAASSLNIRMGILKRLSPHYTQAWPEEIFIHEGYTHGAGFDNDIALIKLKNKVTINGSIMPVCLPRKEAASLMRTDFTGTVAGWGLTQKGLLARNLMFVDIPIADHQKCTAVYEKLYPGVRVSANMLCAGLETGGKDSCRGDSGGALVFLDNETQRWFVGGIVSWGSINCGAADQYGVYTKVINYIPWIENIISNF

Compound | Ki ([1]; read-out: mMASP-2 Ki) | Ki ([2]; read-out: MASP-2 Ki) | MASP-2 vs. thrombin selectivity [2] | IC50 [3] | Ki ([4]; read-out: Thrombin Ki) | Ki [1] | Ki ([4]; Thrombin Ki (μM)) | Ki [2]
Cc1nc(N)ccc1CNC(=O)[C@H](C)NC(=O)[C@H]1C[C@H](Cc2ccc(Oc3ccccc3)cc2)CN1 [compound 1430, (2R,4S)—N—((S)-1-(((6-Amino-2-methylpyridin-3-yl)methyl)amino)-1-oxopropan-2-yl)-4-(4-phenoxybenzyl)pyrrolidine-2-carboxamide Di-trifluoroacetate salt] | < 500 nM | < 500 nM | **** (≥100-fold) | 500 to 5000 nM | > 25 µM | – | – | –
Cc1cnc(NCCc2ccccc2)c(=O)n1CC(=O)NCc1cnc2[nH]cc(Cl)c2c1 [compound 1490, N-((3-Chloro-1H-pyrrolo[2,3-b]pyridin-5-yl)methyl)-2-(6-methyl-2-oxo-3-(phenethylamino)pyrazin-1(2H)-yl)acetamide Acetate salt] | – | < 500 nM | −− (<1.0-fold) | 5000 to 50000 nM | < 0.5 µM | 2500 to 10000 nM | – | –
Cc1nc(N)ccc1CNC(=O)[C@H](C)NC(=O)[C@H]1C[C@H](Cc2ccc(F)c3ccccc23)CN1 [compound 1423, (2R,4S)—N—((S)-1-(((6-Amino-2-methylpyridin-3-yl)methyl)amino)-1-oxopropan-2-yl)-4-((4-fluoronaphthalen-1-yl)methyl)pyrrolidine-2-carboxamide Dihydrochloride] | < 500 nM | < 500 nM | **** (≥100-fold) | 50 to 500 nM | – | – | 2.5 to 10 µM | –
Cc1cc(C)cc(C[C@@H]2CN[C@@H](C(=O)N[C@@H](C)C(=O)NCc3ccc(N)nc3C)C2)c1 [compound 1331, (2R,4S)—N—((S)-1-(((6-amino-2-methylpyridin-3-yl)methyl)amino)-1-oxopropan-2-yl)-4-(3,5-dimethylbenzyl)pyrrolidine-2-carboxamide Dihydrochloride] | < 500 nM | < 500 nM | **** (≥100-fold) | 50 to 500 nM | > 25 µM | – | – | –
Cc1nc(N)ccc1CNC(=O)[C@H](C)NC(=O)[C@H]1C[C@H](Cc2ccc(C(C)(C)C)cc2)CN1 [compound 1380, (2R,4S)—N—((S)-1-(((6-Amino-2-methylpyridin-3-yl)methyl)amino)-1-oxopropan-2-yl)-4-(4-(tert-butyl)benzyl)pyrrolidine-2-carboxamide Dihydrochloride] | < 500 nM | – | *** (≥25 to <100-fold) | > 50000 nM | > 25 µM | – | – | 500 to 2500 nM
Cc1cc(C)c(O)c(CNC(=O)[C@H](C)NC(=O)[C@H]2C[C@H](c3ccccc3)CN2)c1 [compound 1383, (2R,4R)—N—((S)-1-((2-Hydroxy-3,5-dimethylbenzyl)amino)-1-oxopropan-2-yl)-4-phenylpyrrolidine-2-carboxamide Hydrochloride] | 2500 to 10000 nM | – | – | 5000 to 50000 nM | > 25 µM | – | – | 500 to 2500 nM
Cc1nc(N)ccc1CNC(=O)[C@H](C)NC(=O)[C@H]1C[C@@H](Cc2ccccc2)CCN1 [compound 1353, (2R,4S)—N—((S)-1-(((6-Amino-2-methylpyridin-3-yl)methyl)amino)-1-oxopropan-2-yl)-4-benzylpiperidine-2-carboxamide Dihydrochloride] | < 500 nM | < 500 nM | *** (≥25 to <100-fold) | < 50 nM | < 0.5 µM | – | – | –
Cc1ccccc1CN1CCN[C@@H](C(=O)N[C@@H](C)C(=O)NCc2ccc(N)nc2C)C1 [compound 1348, (R)—N—((S)-1-(((6-Amino-2-methylpyridin-3-yl)methyl)amino)-1-oxopropan-2-yl)-4-(2-methylbenzyl)piperazine-2-carboxamide Dihydrochloride] | < 500 nM | < 500 nM | *** (≥25 to <100-fold) | < 50 nM | < 0.5 µM | – | – | –
Cc1nc(N)ccc1CNC(=O)[C@H](C)NC(=O)[C@H]1Cc2c(sc3ccccc23)CN1 [compound 1400, (R)—N—((S)-1-(((6-Amino-2-methylpyridin-3-yl)methyl)amino)-1-oxopropan-2-yl)-1,2,3,4-tetrahydrobenzo[4,5]thieno[2,3-c]pyridine-3-carboxamide Hydrochloride] | 2500 to 10000 nM | < 500 nM | – | 500 to 5000 nM | > 25 µM | – | – | –
CC(=O)Nc1ccc(CCN[C@H](CCc2ccccc2)C(=O)N[C@@H](C)C(=O)NCc2ccc(C(=N)N)cc2)cc1 [compound 1345, (R)-2-((4-acetamidophenethyl)amino)-N-((S)-1-((4-carbamimidoylbenzyl)amino)-1-oxopropan-2-yl)-4-phenylbutanamide dihydrochloride] | < 500 nM | < 500 nM | **** (≥100-fold) | < 50 nM | < 0.5 µM | – | – | –
Cc1nc(N)ccc1CNC(=O)[C@H](C)NC(=O)[C@H]1C[C@H](Cc2ccc(-c3nccs3)cc2)CN1 [compound 1361, (2R,4S)—N—((S)-1-(((6-Amino-2-methylpyridin-3-yl)methyl)amino)-1-oxopropan-2-yl)-4-(4-(thiazol-2-yl)benzyl)pyrrolidine-2-carboxamide Di-trifluoroacetate salt] | < 500 nM | < 500 nM | **** (≥100-fold) | < 50 nM | > 25 µM | – | – | –
Cc1nc(N)ccc1CNC(=O)[C@H](C)NC(=O)[C@H]1C[C@H](Cc2cccc(Cl)c2)CN1 [compound 1328, (2R,4S)—N—((S)-1-(((6-amino-2-methylpyridin-3-yl)methyl)amino)-1-oxopropan-2-yl)-4-(3-chlorobenzyl)pyrrolidine-2-carboxamide Dihydrochloride] | < 500 nM | < 500 nM | **** (≥100-fold) | 50 to 500 nM | – | – | 0.5 to 2.5 µM | –
Cc1nc(N)ccc1CNC(=O)[C@H](C)NC(=O)[C@H]1C[C@H](Oc2ccccc2)CN1 [compound 1446, (2R,4S)—N—((S)-1-(((6-Amino-2-methylpyridin-3-yl)methyl)amino)-1-oxopropan-2-yl)-4-phenoxypyrrolidine-2-carboxamide] | 500 to 2500 nM | < 500 nM | **** (≥100-fold) | 5000 to 50000 nM | > 25 µM | – | – | –
Cc1nc(N)ccc1CNC(=O)[C@H](C)NC(=O)[C@H]1C[C@H](Cc2ccc(Cl)c(Cl)c2)CN1 [compound 1422, (2R,4S)—N—((S)-1-(((6-Amino-2-methylpyridin-3-yl)methyl)amino)-1-oxopropan-2-yl)-4-(3,4-dichlorobenzyl)pyrrolidine-2-carboxamide Dihydrochloride] | < 500 nM | < 500 nM | **** (≥100-fold) | 500 to 5000 nM | – | – | 2.5 to 10 µM | –
Cc1nc(N)ccc1CNC(=O)[C@H](C)NC(=O)[C@H]1C[C@@H](c2ccccc2)CCN1 [compound 1253, (2R,4S)—N—((S)-1-(((6-Amino-2-methylpyridin-3-yl)methyl)amino)-1-oxopropan-2-yl)-4-phenylpiperidine-2-carboxamide] | – | < 500 nM | – | 50 to 500 nM | > 25 µM | 500 to 2500 nM | – | –
COc1ccc2cc(C[C@@H]3CN[C@@H](C(=O)N[C@@H](C)C(=O)NCc4ccc(N)nc4C)C3)ccc2c1 [compound 1453, (2R,4S)—N—((S)-1-(((6-Amino-2-methylpyridin-3-yl)methyl)amino)-1-oxopropan-2-yl)-4-((6-methoxynaphthalen-2-yl)methyl)pyrrolidine-2-carboxamide Dihydrochloride] | < 500 nM | < 500 nM | **** (≥100-fold) | < 50 nM | – | – | 10 to 25 µM | –
Cc1nc(N)ccc1CNC(=O)[C@H](CCC(N)=O)NC(=O)[C@H]1C[C@H](Cc2ccccc2)CN1 [compound 1382, (S)—NI-((6-Amino-2-methylpyridin-3-yl)methyl)-2-((2R,4S)-4-benzylpyrrolidine-2-carboxamido)pentanediamide Di-trifluoroacetate salt] | – | < 500 nM | *** (≥25 to <100-fold) | 5000 to 50000 nM | > 25 µM | 2500 to 10000 nM | – | –
C[C@H](NC(=O)[C@H]1C[C@H](Cc2ccc3ccccc3c2)CN1)C(=O)NCc1cnc2[nH]cc(Cl)c2c1 [compound 1392, (2R,4S)—N—((S)-1-(((3-Chloro-1H-pyrrolo[2,3-b]pyridin-5-yl)methyl)amino)-1-oxopropan-2-yl)-4-(naphthalen-2-ylmethyl)pyrrolidine-2-carboxamide Di-Trifluoroacetate salt] | < 500 nM | < 500 nM | *** (≥25 to <100-fold) | 500 to 5000 nM | – | – | 0.5 to 2.5 µM | –
Cc1cc(Cl)cc(CNC(=O)[C@H](C)NC(=O)[C@H]2C[C@@H](Cc3ccccc3)CCN2)c1O [compound 1363, (2R,4S)-4-Benzyl-N-((S)-1-((5-chloro-2-hydroxy-3-methylbenzyl)amino)-1-oxopropan-2-yl)piperidine-2-carboxamide Hydrochloride] | < 500 nM | < 500 nM | **** (≥100-fold) | 50 to 500 nM | – | – | 2.5 to 10 µM | –
Cc1cccc(C[C@@H]2CN[C@@H](C(=O)N[C@@H](C)C(=O)NCc3ccc(N)nc3C)C2)c1 [compound 1337, (2R,4S)—N—((S)-1-(((6-amino-2-methylpyridin-3-yl)methyl)amino)-1-oxopropan-2-yl)-4-(3-methylbenzyl)pyrrolidine-2-carboxamide dihydrochloride] | < 500 nM | < 500 nM | **** (≥100-fold) | 500 to 5000 nM | – | – | 0.5 to 2.5 µM | –
